Results as given in ChEMBL document CHEMBL1140261, “Novel 1-[2-(diarylmethoxy)ethyl]-2-methyl-5-nitroimidazoles as HIV-1 non-nucleoside reverse transcriptase inhibitors. A structure-activity relationship investigation” (J Med Chem, 2005).

Tests used:
MT4 [1] = test: (§1) Selective index as the ratio of CC50 and EC50; type: functional
MT4 [2] = test: Concentration required to reduce the viability of mock-infected cells by 50%; determined by MTT method.; type: functional; details: Homo sapiens
MT4 [3] = test: Concentration required to protect MT-4 cells from HIV-1 induced cytopathogenicity by 50%; determined by MTT method; type: functional, cell-based; details: Homo sapiens
[4] = tested on: Human immunodeficiency virus type 1 reverse transcriptase (Human immunodeficiency virus 1), Q72547 [R221A]
Description: Dose required to inhibit HIV-1 reverse transcriptase activity (Y188L mutant) by 50%

[5] = tested on: Human immunodeficiency virus type 1 reverse transcriptase (Human immunodeficiency virus 1), Q72547 [V179D]
Description: Dose required to inhibit HIV-1 reverse transcriptase activity (V179D mutant) by 50%

[6] = tested on: Human immunodeficiency virus type 1 reverse transcriptase (Human immunodeficiency virus 1), Q72547 [K103N]
[7] = tested on: Human immunodeficiency virus type 1 reverse transcriptase (Human immunodeficiency virus 1), Q72547 [L100I]
Description: Dose required to inhibit HIV-1 reverse transcriptase activity ( L100I mutant) by 50%

[8] = molecular target: Human immunodeficiency virus type 1 reverse transcriptase (Human immunodeficiency virus 1) (UniProt Q72547)
Description: Dose required to inhibit HIV-1 reverse transcriptase activity (wild-type) by 50%

[9] = tested on: Human immunodeficiency virus type 1 reverse transcriptase (Human immunodeficiency virus 1), Q72547 [Y181I]
[10] = molecular target: T1, Human immunodeficiency virus type 1 reverse transcriptase (Human immunodeficiency virus 1, UniProt Q72547); test: Concentration required to inhibit HIV-1 reverse transcriptase activity of wild-type enzyme; type: functional
[11] = molecular target: Human immunodeficiency virus type 1 reverse transcriptase (Human immunodeficiency virus 1) (UniProt Q72547); test: Dose required to inhibit HIV-1 reverse transcriptase activity of wild-type enzyme by 50%
[12] = molecular target: T1, Human immunodeficiency virus type 1 reverse transcriptase; test: Concentration required to inhibit HIV-1 reverse transcriptase activity (wild-type) by 50%; type: functional
MT4 [13] = test: as §1; type: functional, Human immunodeficiency virus 1
[14] = molecular target: T1, Human immunodeficiency virus type 1 reverse transcriptase; test: Concentration required to inhibit HIV-1 reverse transcriptase activity (wild-type) enzyme
[15] = tested on: Human immunodeficiency virus type 1 reverse transcriptase (Human immunodeficiency virus 1), Q72547 [L100I]; test: Dose required to inhibit HIV-1 reverse transcriptase activity (L100I mutant) by 50%
[16] = tested on: Human immunodeficiency virus type 1 reverse transcriptase (Human immunodeficiency virus 1), Q72547 [K103N]; test: Dose required to inhibit HIV-1 reverse transcriptase activity (K103N mutant) by 50%

| SMILES | SI (MT4 [1]) | CC50 (MT4 [2]) [µM] | EC50 (MT4 [3]) [µM] | other results |
| --- | --- | --- | --- | --- |
| Cc1ccc(C(NCCn2c([N+](=O)[O-])cnc2C)c2ccccc2)cc1 (stereo unspecified) | >2.3 | > 100 | 44 | – |
| Cc1ncc([N+](=O)[O-])n1CCOC(c1ccccc1)c1ccco1 (stereo unspecified) | >840 | > 100 | 0.1 | – |
| Cc1ncc([N+](=O)[O-])n1CCNCc1ccccc1 | – | > 100 | > 100 | – |
| Cc1ncc([N+](=O)[O-])n1CCS(=O)(=O)C(c1ccccc1)c1ccccc1 | >19.3 | > 100 | 5.2 | – |
| Cc1ncc([N+](=O)[O-])n1CCSC(c1ccccc1)c1ccccc1F (stereo unspecified) | >20 | > 100 | 5 | – |
| Cc1ncc([N+](=O)[O-])n1CCOC(c1ccccc1)c1ccc2ccccc2c1 (stereo unspecified) | – | > 100 | > 100 | – |
| Cc1ncc([N+](=O)[O-])n1CCNC(c1ccccc1)c1cccc(Cl)c1 (stereo unspecified) | >47.6 | > 100 | 2.1 | – |
| Cc1ncc([N+](=O)[O-])n1CCSC(c1ccccc1)c1cccc(Cl)c1 (stereo unspecified) | >1.6 | > 100 | 64 | – |
| Cc1ncc([N+](=O)[O-])n1CCOC(c1ccccc1)c1cccnc1 (stereo unspecified) | >1250 | > 100 | 0.08 | – |
| Cc1nc([N+](=O)[O-])cn1CCOC(c1ccccc1)c1ccccc1 | >1.5 | > 100 | 67 | – |
| Cc1ncc([N+](=O)[O-])n1CCOC(c1cccs1)c1ccccc1Cl (stereo unspecified) | >52.6 | > 100 | 1.9 | – |
| Cc1ncc([N+](=O)[O-])n1CCOC(c1ccc(Cl)cc1)c1cccs1 (stereo unspecified) | >1.7 | > 100 | 58 | – |
| Cc1nc([N+](=O)[O-])cn1CCOCc1ccccc1 | >4.5 | > 100 | 22 | – |
| Cc1ncc([N+](=O)[O-])n1CCSC(c1ccccc1)c1ccccc1Cl (stereo unspecified) | >8.3 | > 100 | 12 | – |
| Cc1ccnc2c1NC(=O)c1cccnc1N2C1CC1 | – | – | – | ID50 [4]: 18 µM; ID50 [5]: 0.3 µM; ID50 [6]: 7 µM; ID50 [7]: 9 µM; ID50 [8]: 0.4 µM; ID50 [9]: 36 µM |
| Cc1ccc(C(OCCn2c([N+](=O)[O-])cnc2C)c2cccs2)cc1 (stereo unspecified) | >3333 | > 100 | 0.3 | – |
| Cc1ncc([N+](=O)[O-])n1CCSC(c1ccccc1)c1ccccc1 | >83.5 | > 100 | 1.2 | EC50 [10]: 2.3 µM; ID50 [11]: 10.6% |
| Cc1ncc([N+](=O)[O-])n1CCOC(c1cccs1)c1cccc(F)c1F (stereo unspecified) | >1667 | > 100 | 0.06 | – |
| Cc1ncc([N+](=O)[O-])n1CCSCc1ccccc1 | >1.7 | > 100 | 60 | – |
| Cc1ncc([N+](=O)[O-])n1CCNC(c1ccccc1)c1ccccc1 | >8.3 | > 100 | 12 | EC50 [12]: 8 µM; ID50 [8]: 16.5 µM |

| SMILES | SI (MT4 [1]) | CC50 (MT4 [2]) [µM] | EC50 (MT4 [3]) [µM] | other results |
| --- | --- | --- | --- | --- |
| O=[N+]([O-])c1cncn1CCOC(c1ccccc1)c1ccccc1 | – | > 100 | > 100 | – |
| Cc1ncc([N+](=O)[O-])n1CCN(Cc1ccccc1)C1CCCCC1 | >1.2 | > 100 | 84 | – |
| Cc1ncc([N+](=O)[O-])n1CCOC(c1ccccc1)c1ccccc1 | >500 | > 100 | – | – |
| Cc1cccc(C(SCCn2c([N+](=O)[O-])cnc2C)c2ccccc2)c1 (stereo unspecified) | >33.3 | > 100 | 3 | – |
| Cc1cccc(C(NCCn2c([N+](=O)[O-])cnc2C)c2ccccc2)c1 (stereo unspecified) | >1.5 | > 100 | 65 | – |
| Cc1ncc([N+](=O)[O-])n1CCOC(c1ccccc1)c1cccs1 (stereo unspecified) | – | > 100 | 0.03 | ID50 [4]: 30.2 µM; ID50 [5]: 1.9 µM; SI (MT4 [13]): >3333; EC50 [14]: 0.03 µM; ID50 [6]: 8.25 µM; ID50 [7]: 5.5 µM; ID50 [8]: 0.37 µM; ID50 [9]: > 50 µM |
| O=[N+]([O-])c1cn(CCOC(c2ccccc2)c2ccccc2)cn1 | >1.3 | > 100 | 78 | – |
| Cc1ncc([N+](=O)[O-])n1CCNC(c1ccccc1)c1ccc(F)cc1 (stereo unspecified) | >1.1 | > 100 | 92 | – |
| Cc1ncc([N+](=O)[O-])n1CCSC(c1ccccc1)c1cccc(F)c1 (stereo unspecified) | >1.2 | > 100 | 80 | – |
| Cc1ncc([N+](=O)[O-])n1CCOC(c1cccs1)c1ccccc1F (stereo unspecified) | >833 | > 100 | 0.12 | – |
| Cc1ncc([N+](=O)[O-])n1CCOC(c1ccccc1)c1ccc(Cl)s1 (stereo unspecified) | 8.33 | > 100 | 1.2 | – |
| Cc1ncc([N+](=O)[O-])n1CCOC(c1ccccc1)C1CCCCC1 (stereo unspecified) | >333.3 | > 100 | 0.3 | – |
| Cc1ncc([N+](=O)[O-])n1CCOC(c1cccc(Cl)c1)c1cccs1 (stereo unspecified) | 900 | 72 | 0.08 | ID50 [4]: 15.1 µM; ID50 [5]: 10.8 µM; ID50 [15]: 3.2 µM; ID50 [16]: 5.1 µM; ID50 [8]: 1.17 µM; ID50 [9]: 6.25 µM |
| Cc1ncc([N+](=O)[O-])n1CCOC(c1ccc(F)cc1)c1cccs1 (stereo unspecified) | >32.3 | > 100 | 3.1 | – |
| Cc1ncc([N+](=O)[O-])n1CCNC(c1ccccc1)c1cccc(F)c1 (stereo unspecified) | >55.6 | > 100 | 1.8 | – |
| Cc1ncc([N+](=O)[O-])n1CCNC(c1ccccc1)c1ccccc1F (stereo unspecified) | >2 | > 100 | 50 | – |
| Cc1ncc([N+](=O)[O-])n1CCOC(c1cccc(F)c1)c1cccs1 (stereo unspecified) | >714 | > 100 | 0.14 | – |
| Cc1ncc([N+](=O)[O-])n1CCOCc1ccccc1 | >2.38 | > 100 | 4.2 | – |
| Cc1ncc([N+](=O)[O-])n1CCNC(c1ccccc1)c1ccccc1Cl (stereo unspecified) | >1.1 | > 100 | 90 | – |
| Cc1ccccc1C(OCCn1c([N+](=O)[O-])cnc1C)c1cccs1 (stereo unspecified) | 204 | 92 | 0.45 | – |
